“Also recorded” adds a separate entry of the source. Where no end group is shown, it is not given here.
T1: CFP-RapA (Bacillus subtilis 168, UniProt Q00828 1-378)
T1 construct: RapA, Rap-family RRNPP-type receptor (response regulator aspartate phosphatase A) of Bacillus subtilis; rapA amplified from B. subtilis 168 genomic DNA; ecfp(Bs) is joined to the N-terminus of RapA by a GSGGV linker; also called RapA receptor; RapA-CFP; source: B. subtilis reporter strain BIB625 (ΔrapA-phrA Δspo0F), IPTG-induced from the amyE locus, in living cells; not shown: eCFP(Bs), …
T1 sequence (looked up): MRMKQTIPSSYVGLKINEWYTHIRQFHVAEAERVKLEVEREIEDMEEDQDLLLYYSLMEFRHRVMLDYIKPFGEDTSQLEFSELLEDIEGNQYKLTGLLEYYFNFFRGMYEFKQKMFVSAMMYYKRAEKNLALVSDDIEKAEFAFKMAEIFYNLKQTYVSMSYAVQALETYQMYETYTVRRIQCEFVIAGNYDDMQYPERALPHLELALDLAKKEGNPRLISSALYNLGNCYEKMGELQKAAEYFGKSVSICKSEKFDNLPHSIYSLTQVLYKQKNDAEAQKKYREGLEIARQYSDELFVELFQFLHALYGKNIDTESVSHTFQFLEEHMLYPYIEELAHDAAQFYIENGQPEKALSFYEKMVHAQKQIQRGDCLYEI


Experiments:
[1] = PhrA stability in cell-free supernatant (Supplementary Fig. 5B); type: in vitro ADME
Procedure: Bioassay and supernatant analysis: The supernatants were collected after centrifugation of stimulated cells. Aliquots (VS = 450 µl) of the cell-free supernatants were mixed with 50 µl of a 10× suspension of fresh unstimulated reporter cells, for tB = 5 min + 1 min (time for incubation plus centrifugation) at room temperature and then processed as described above. To detect extracellular PhrA in S7_50 cultures, wild-type cells (BIB224) were grown for 5 h to an OD600 nn ~ 1.6 and pelleted by centrifugation. The supernatants were then filtered through a 0.2-µm PES membrane, and analyzed as described above with the following modification. To increase the sensitivity of the bioassay, the volume of analyzed supernatant and the incubation time were increased to VS = 1950 µl and tB = 20 min + 1 min, respectively.

[2] = system: reporter cells BIB625 (RapA-Spo0F FRET); assay: Bioassay of supernatants: PhrA depletion from medium measured with fresh reporter cells; type: cell-based, Bacillus subtilis; settings: 10 nM PhrA, within a few minutes
Procedure: Induction of FRET reporters: Reporter cells were inoculated from a single colony into 5 ml of LB medium with antibiotics and incubated on a rotary shaker (Infors HT Multitron) at 180 rpm and 37 °C for 7 h. Cells were resuspended at OD600 nm = 0.003 in 5 ml of S7_50 medium and incubated for 16 h overnight. Expression of the fusion proteins was induced by resuspending the reporter cells at an OD600 nm =0.04 in 10 ml of fresh S7_50 supplemented with 100 µM IPTG in a 100-ml flask. When applicable, protein expression from a xylose-inducible promoter was induced by adding xylose at a final concentration of 1% (w/v). Cells were grown to a final OD600 nm ~1.6.
Bioassay and supernatant analysis: The supernatants were collected after centrifugation of stimulated cells. […] The supernatants were then filtered through a 0.2-µm PES membrane, and analyzed as described above with the following modification. To increase the sensitivity of the bioassay, the volume of analyzed supernatant and the incubation time were increased to VS = 1950 µl and tB = 20 min + 1 min, respectively. […]
The FRET efficiency was determined using the formula:5 FRET=CFPpost−CFPpre/CFPpost⋅100%, where CFPpre and CFPpost denote the emission levels before and after acceptor photobleaching, respectively. […] CFPpre is then evaluated at the end of the bleaching period by extrapolating the linear fit accordingly (see Fig. 2b). […]

CFP-RapA = molecular target: T1, CFP-RapA; assay: FRET or BRET; loss of CFP-RapA/Spo0F-YFP FRET in B. subtilis reporter cells against PhrA; EC50 is the intracellular PhrA concentration of the half-maximal response, inferred by fitting all data of Figs. 4 and 5 to the pump-probe model (Hill function); settings: one partner purified

Molecule | time for which bioassay FRET remained unchanged (stability) ([1]; 10 nM PhrA in cell-free supernatant, room temperature, bioassay read-out, ne = 3) | bioassay FRET during incubation in cell-free supernatant ([1]; 10 nM PhrA in cell-free supernatant, room temperature, up to at least 8 h, ne = 3) | extracellular stability ([1]; 10 nM PhrA, cell-free supernatant) | extracellular PhrA level after stimulation [2] | EC50 (CFP-RapA) [µM]
ARNQT [PhrA] | at least 8 h | ~ 7% | stable in cell-free supernatants; also recorded: stable for hours | below the detection limit of the bioassay | –
ARNQT (PhrA, the mature linear pentapeptide derived from the phrA gene product of Bacillus subtilis; also called PhrA pentapeptide; ARNQT; source: synthetic peptide (Peptides and Elephant, purity >95%)) [PhrA] | – | – | – | – | 38

Reference: paper PMC7055314, “Ratiometric population sensing by a pump-probe signaling system in Bacillus subtilis” (Nature Communications, 2020)
